Laboratory results: patent US12060388B2, “Cell-penetrating peptides and methods of use thereof” (priority 2018, dated 2024)

Experiments:
Type in all cases: cell-based
HPV16 pseudovirus (PsV) = assay: Peptide inhibition of HPV16 PsV infection of HeLa-S3 cells, flow cytometry for HcRed
Source text: FIG. 18A (top) depicts sequences of L2 peptides. […] Amino acid substitutions in the CPP or RBS mutant peptides are shown in orange and blue, respectively. Bottom: RBS and flanking sequences of indicated HPV L2 proteins or DMT1-II. FIG. 18B depicts an inhibitory dose-response curve for P16/16 peptide. 5×10^4 HeLa-S3 in 24-well plates were pretreated with various concentrations of P16/16 for one hour prior to infection with HPV pseudovirus (PsV) at multiplicity of infection (MOI) of 1. Peptide was left in the medium for the duration of the experiment. Cells were assessed by flow cytometry to determine the fraction of cells expressing reporter protein HcRed at 48 hours post-infection (h.p.i.). […] FIG. 18C depicts 5×10^4 HeLa-S3 in 24-well plates were pretreated with 14 μM of the indicated peptide for one hour, followed by infection with HPV PSV at MOI of one. Peptides were left in the medium for the duration of the experiment. As a control, cells were incubated with the solution used to dissolve peptide. Forty-eight h.p.i., cells were assessed by flow cytometry to determine fraction of cells expressing reporter protein HcRed. […] For the comparison of P16/16 to P16/6A, P16/3R, and PDM/16 for HPV16 PsV, **, p<0.01; ***, p<0.001. […] FIG. 18D depicts inhibition of HPV infection of HaCaT cells. HaCaT keratinocytes were infected at MOI of 1 with HPV16 PsV in the presence and absence of 14 μM P16/16, and infectivity was assessed 48 h.p.i. by flow cytometry for HcRed fluorescence. FIG. 18E depicts inhibition of authentic HPV16. HeLa cells were infected with HPV16 harvested from organotypic cultures of human keratinocytes or with HPV16 PsV in the presence (grey bars) or absence (black bars) of P16/16. Successful infection by HPV16 and HPV16 PsV was assessed by quantitative reverse transcription-PCR (qRT-PCR) for expression of HPV early region and HcRed mRNA, respectively, and normalized to infection by the cognate virus in the absence of peptide. Background signal determined with non-cognate primers was <0.01%.
To assess the effect of peptides on viral infection, 5×104 HeLa-S3 in 24-well plates were pretreated with peptides for one hour, followed by infection with wild-type HPV PsV at 37° C. at MOI of ˜1 or with mutant PsV containing an equivalent number of encapsidated reporter plasmids. Peptides were left in the medium for the duration of the experiment unless otherwise indicated. As a control, cells were incubated with the solution used to dissolve peptide. Cells were assessed by flow cytometry on a Stratedigm-13 flow cytometer to determine reporter protein expression at 48 h.p.i. unless otherwise indicated. In some experiments, peptides were added at various times after infection and were left in the medium for the duration of the experiment.

EEA1 / HPV16 L1 = assay: Proximity ligation assay for L1 and EEA1 in peptide-treated infected cells; conditions: 14 μM
Protocol: HeLa-S3 cells grown on glass coverslips for 16 hours were incubated for one hour with or without 14 μM P16/16, followed by mock-infection or infection with HPV16 PSV at MOI of 200. 8 and 16 h.p.i., cells were processed for PLA with anti-L1 antibody and an antibody recognizing EEA1 (FIG. 20A) or TGN46 (FIG. 20B). PLA was performed as in FIG. 19B. The PLA signal for EEA1/L1 was normalized to that of cells infected with HPV16 PsV in the absence of peptide at 8 h.p.i., while the TGN46/L1 signal was normalized to untreated cells at 16 h.p.i.
For the proximity ligation assay, after an hour incubation with peptides, HeLa-S3 cells were infected with wild-type PSV at MOI of 200 or mutant PsV containing the same number of reporter plasmid genomes. Infected cells were fixed at 8 or 16 h.p.i., permeabilized, and incubated with 1:100 dilutions of anti-L1 antibody and an antibody recognizing EEA1, TGN46, or VPS35. […] The nuclei were stained by using Abcam fluorescence mounting medium with DAPI and images were acquired by a Leica SP5 inverted fluorescence microscope. […] The images were processed by Fiji and quantitatively analyzed by BlobFinder software to measure total fluorescence intensity in each sample. The average fluorescence intensity per cell in each sample was normalized to the control sample as indicated in each experiment. […]

HPV18 PsV = assay: Peptide inhibition of HPV18 PsV infection of HeLa-S3 cells, flow cytometry for HcRed; conditions: 14 μM peptide, MOI of one, 48 h.p.i.
Source text: FIG. 18A (top) depicts sequences of L2 peptides. […] Amino acid substitutions in the CPP or RBS mutant peptides are shown in orange and blue, respectively. Bottom: RBS and flanking sequences of indicated HPV L2 proteins or DMT1-II. FIG. 18B depicts an inhibitory dose-response curve for P16/16 peptide. 5×10^4 HeLa-S3 in 24-well plates were pretreated with various concentrations of P16/16 for one hour prior to infection with HPV pseudovirus (PsV) at multiplicity of infection (MOI) of 1. Peptide was left in the medium for the duration of the experiment. Cells were assessed by flow cytometry to determine the fraction of cells expressing reporter protein HcRed at 48 hours post-infection (h.p.i.). […] Forty-eight h.p.i., cells were assessed by flow cytometry to determine fraction of cells expressing reporter protein HcRed. […] HaCaT keratinocytes were infected at MOI of 1 with HPV16 PsV in the presence and absence of 14 μM P16/16, and infectivity was assessed 48 h.p.i. by flow cytometry for HcRed fluorescence. […] Successful infection by HPV16 and HPV16 PsV was assessed by quantitative reverse transcription-PCR (qRT-PCR) for expression of HPV early region and HcRed mRNA, respectively, and normalized to infection by the cognate virus in the absence of peptide. Background signal determined with non-cognate primers was <0.01%. […]

[1] = test system: HPV16 PsV containing GFP11-tagged L2; assay: Split GFP assay with peptide, HaCaT/GFP1-10NES cells; conditions: 30 μM, MOI of 2000, three h.p.i.
Protocol: FIG. 26A depicts clonal HaCaT/GFP1-10NES cells expressing cytosolic GFP1-10 infected at MOI of 2000 with untagged HPV16 or with HPV16 PsV containing GFP11-tagged L2 in the absence or presence of 30 μM P16/16. Three h.p.i., cells were stained with Hoescht 33342 to visualize nuclei (blue) and examined by confocal microscopy for GFP fluorescence. FIG. 26B the corrected total cellular fluorescence (CTCF) of each cell was calculated and plotted in arbitrary units from three independent experiments. n.s., not significant. FIG. 26C depicts HaCaT/GFP-10NES cells infected as described in FIG. 26A with wild-type HPV16 PsV in the presence of 30 μM P16/16 or in its absence for three hours, followed by removal of PsV and incubation with medium containing peptide for an additional 48 hours. Cells were assessed by flow cytometry to determine reporter protein expression. Infectivity was normalized with that in the absence of peptide. **, p<0.01.
To determine if the cytoplasmic protrusion of L2 of PsV is inhibited by peptides, the split GFP assay was performed. 3×104 clonal HaCaT/GFP1-10NES expressing GFP1-10NES in the cytoplasm were seeded in eight-chambered glass slides and incubated with peptides for an hour prior to infection at MOI of ˜2000 with HPV16 PsV containing wild-type L2 or L2 containing inserted GFP11. […]

Structure (SMILES): CC[C@H](C)[C@H](NC(=O)[C@@H](NC(=O)[C@H](Cc1ccc(O)cc1)NC(=O)[C@H](CCC(N)=O)NC(=O)[C@@H]1CCCN1C(=O)[C@H](CO)NC(=O)[C@@H](N)CS)[C@@H](C)O)C(=O)N[C@H](C(=O)N[C@@H](C)C(=O)N[C@@H](CC(=O)O)C(=O)N[C@@H](C)C(=O)NCC(=O)N[C@@H](CC(=O)O)C(=O)N[C@@H](Cc1ccccc1)C(=O)N[C@@H](Cc1ccc(O)cc1)C(=O)N[C@@H](CC(C)C)C(=O)N[C@@H](Cc1c[nH]cn1)C(=O)N1CCC[C@H]1C(=O)N[C@@H](CO)C(=O)N[C@@H](Cc1ccc(O)cc1)C(=O)N[C@@H](Cc1ccc(O)cc1)C(=O)N[C@@H](CCSC)C(=O)N[C@@H](CC(C)C)C(=O)N[C@@H](CCCNC(=N)N)C(=O)N[C@@H](CCCCN)C(=O)N[C@@H](CCCNC(=N)N)C(=O)N[C@@H](CCCNC(=N)N)C(=O)N[C@@H](CCCCN)C(=O)N[C@@H](CCCNC(=N)N)C(=O)O)[C@@H](C)CC [P16/16]
- time of peptide addition for effective inhibition (HPV16 pseudovirus (PsV); 14 μM peptide added at time of infection or at indicated h.p.i.): needed to be added during the first few hours of infection
- persistence of inhibition (HPV16 pseudovirus (PsV); 14 μM peptide left in medium, 48, 72, or 96 h.p.i.): at least 96 h.p.i.
- inhibition of HPV16 PsV infection (HPV16 pseudovirus (PsV); 14 μM peptide, MOI of 1, 48 h.p.i.): statistically significant (p<0.01) inhibition
- infection after removal of peptide (HPV16 pseudovirus (PsV); peptide removed from the medium after 24 hours): infection was not restored over the next three days
- reduction in infection, dose-response (HPV16 pseudovirus (PsV); various concentrations of peptide, MOI of 1, 48 h.p.i.): dose-dependent reduction in infection
- EEA1/L1 PLA at 8 h.p.i. (EEA1 / HPV16 L1; MOI of 200, 8 h.p.i.): arrival of HPV at the endosome regardless of the presence of the peptide
- EEA1/L1 PLA at 16 h.p.i. (EEA1 / HPV16 L1; MOI of 200, 16 h.p.i.): striking accumulation of the virus in the endosome
- inhibition of HPV18 PsV infection (HPV18 PsV): potently inhibited infection
- protrusion of L2 C terminus into the cytoplasm (reconstituted GFP) [1]: did not inhibit protrusion of the C terminus of the L2 protein into the cytoplasm
